Results on 33 molecules are retold here after PubChem BioAssay (NCI).

What all share (assay): DTP human tumour cell line panel, 48 h
Assay [1] relates to A498 renal.
The subject of assay [2] is HOP-92 NSCLC.
Assay [3] concerns K-562 leukemia.
Assay [4] deals with M14 melanoma.
For assay [5], the system named is NCI-H23 lung.
The subject of assay [6] is SK-OV-3 ovarian.
Assay [7] concerns UACC-257 melanoma.
The subject of assay [8] is MDA-MB-435.
In assay [9] the test system is HS 578T breast.

Several values for one entry are separate records, joined by “and”; a condition that tells them apart may be missing. Equal values may be shown once.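 Protocol summary: plate cells (96-well), add compound at 5 concentrations, incubate 48 h, interpolate endpoints linearly. GI50 = concentration required for 50% inhibition of growth. At the TGI there is no net growth.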 Some results are limits rather than exact numbers.

As for `CCOC(=O)NC1CC2CCC1(OC)C=C2C` (configuration not stated), the concentration for total growth inhibition (TGI) in [1], in assay [2], in assay [3], in assay [4], in assay [5] and in assay [6] was above 100 µM throughout. In assay [7], this molecule registered a TGI above 100 µM.
As for `CC(CN)[C@@H]1CC[C@]2(CO)CC[C@]3(C)[C@H](CC[C@@H]4[C@@]5(C)CCC(N)C(C)(C)[C@@H]5CC[C@]43C)[C@@H]12` (some centres not stated), the GI50 in assay [1] is 1.84 µM; in assay [2], 1.45 µM; in assay [4] it was 1.9 µM; in assay [8], 1.73 µM; in assay [5] it was 1.85 µM; in [6], 1.86 µM. Also, the GI50 in assay [7] is 1.85 µM. Besides, the TGI worked out at 3.31 µM in assay [1]; 3.07 µM in [2]; 3.76 µM in [4]; 3.26 µM in [8]; 3.7 µM in [5]; 3.29 µM in [6]. In [7], this molecule gave a TGI of 3.28 µM.
With `CCCN1C(=O)CNC(=O)c2[nH]cnc21`, the TGI in assay [1], in [2], in assay [3], in assay [4], in assay [5] and in [6] was above 100 µM each time. Besides, in [7], the TGI is above 100 µM.
Turning to `COc1cc(/C=C2\C[C@H]3[C@@H]4CC=C5C[C@@H](OC(C)=O)CC[C@]5(C)[C@H]4CC[C@]3(C)[C@H]2OC(C)=O)ccc1OCCN1CCCCC1`, the GI50 in assay [2] is 27.6 µM; in [9], 12.1 µM; in assay [3], 12.8 µM; in assay [4], 2.46 µM; in assay [8], 14.4 µM; in assay [5], above 50 µM. Further, the GI50 in assay [7] is 5.77 µM. The total growth inhibition concentration (TGI) in assay [2] was above 50 µM; in assay [9] it was 42.8 µM; in [3] it was 43.2 µM; in [4] it was 10 µM; in assay [8], 44.4 µM; in assay [5], above 50 µM. Moreover, the TGI in assay [7] worked out at 13.6 µM.
As for `O=C(O)[C@@H](NS(=O)(=O)c1ccc([N+](=O)[O-])cc1)c1ccccc1`, the TGI in assay [1], in [2], in assay [3], in assay [4], in assay [5] and in assay [6] was above 100 µM each time. This molecule came in with a TGI in assay [7] above 100 µM.
Consider `C=C[C@H]1C=Cc2c(OC)cccc2[C@@H]1COP1(=S)NC(C)C(c2ccccc2)O1` (some centres not stated), for which the concentration for total growth inhibition (TGI) in [3], in assay [4], in assay [5] and in assay [6] was above 100 µM throughout.
Take `O=C(C=Nc1ccccc1C(=O)[O-])c1cccs1.O=C(C=Nc1ccccc1C(=O)[O-])c1cccs1.[Zn+2]`: the TGI in [1] is above 100 µM; in assay [2], 64 µM; in assay [3] it was 88 µM; in assay [4], above 100 µM; in assay [5] it was above 100 µM; in assay [6], 37.9 µM. Moreover, in assay [7], the TGI was found to be 43 µM.
Turning to `CC(C)c1cccc(C(C)C)c1NC(=O)CCC(=O)NN`, the TGI in assay [1], in assay [2], in assay [3], in [4], in [5] and in assay [6] was above 100 µM throughout. Further, the TGI in assay [7] was above 100 µM.
On to `Nc1nc(=Nc2ccccc2)ss1`, for which the TGI in [1], in assay [2], in [3], in assay [4], in assay [5] and in assay [6] was above 100 µM each time. The same molecule displayed a TGI in [7] above 100 µM.
`FC(F)(F)c1cccc(C2SCc3nc4ccccc4n32)c1` (configuration not stated): the TGI in assay [2] was 32.2 µM; in assay [3], above 100 µM; in assay [5], above 100 µM; in [6] it was 89.1 µM; in [7], above 100 µM.
For the molecule `O=C(Cc1ccccc1)NS(=O)(=O)c1ccccc1`, the TGI in assay [1], in assay [2], in assay [3], in assay [4], in [5] and in assay [6] was above 100 µM each time. In [7], this molecule yielded a TGI above 100 µM.
For `CCOC(=O)c1cc(OC(=O)CC)c2c(OC)ccc(OC)c2c1`, the TGI in assay [3] is above 100 µM; in assay [5], above 100 µM; in [6] it was 91.6 µM.
Regarding `COc1ccccc1NC(=O)C(CC(C(=O)Nc1ccccc1OC)/C(C)=N/NC(=O)c1ccccc1O)/C(C)=N/NC(=O)c1ccccc1O` (configuration not stated), the TGI in [1], in assay [2], in assay [3], in assay [4], in assay [5] and in [6] was above 100 µM each time. For the same molecule, in assay [7], the TGI is above 100 µM.
In the case of `FC(F)(F)c1nc(-c2ccccc2)oc1Sc1oc(-c2ccccc2)nc1C(F)(F)F`, the TGI in assay [1] is above 100 µM; in assay [2] it was 94.6 µM; in assay [3], above 100 µM; in [4] it was above 100 µM; in assay [5] it was above 100 µM; in [6], above 100 µM. In assay [7], this molecule came in with a total growth inhibition concentration (TGI) above 100 µM.
Turning to `Cc1ccc(N2C(=O)C(Cl)=C(Cl)C2=O)cc1`, the TGI is above 100 µM in [1]; 32.4 µM in assay [2]; 87.4 µM in [3]; 36.7 µM in assay [4]; 41.3 µM in [5]; above 100 µM in assay [6]. The molecule also came in with a TGI in assay [7] of 63.9 µM.
With `Cn1nc2ccccc2cc1=O`, the TGI in assay [1], in [2], in [3], in assay [4], in [5] and in assay [6] was above 100 µM in each case. In addition, the TGI in [7] was above 100 µM.
Take `C[CH2][Sn]([CH2]C)([O]C(=O)c1ccc(F)cc1)[O][Sn]([CH2]C)([CH2]C)[O]C(=O)c1ccc(F)cc1`: the GI50 in assay [1] was 16.4 µM; in assay [2], 19.1 µM; in assay [3] it was 20.1 µM; in assay [4], above 100 µM; in assay [5], 41 µM; in assay [6], above 100 µM. In assay [7], the GI50 was 41.1 µM. Besides, the TGI was 30 µM in assay [1]; 59 µM in assay [2]; 78.6 µM in [3]; above 100 µM in assay [4]; above 100 µM in [5]; above 100 µM in assay [6]. This molecule also gave a TGI in assay [7] above 100 µM.
As for `COC(=O)Cc1cc(=O)n2c([nH]c3ccccc32)c1C#N`, the TGI in assay [1], in [3], in assay [4], in assay [5], in assay [6] and in assay [7] was above 100 µM each time.
Consider `C#Cc1cc(CN(CC(=O)OC(C)(C)C)CC(=O)OC(C)(C)C)nc(CN(CC(=O)OC(C)(C)C)CC(=O)OC(C)(C)C)c1`, for which the TGI in assay [1] is 76.1 µM; in assay [3], 26.6 µM; in assay [4], 28.6 µM; in assay [5], 26.3 µM; in [6] it was 51 µM; in [7], 9.15 µM.
On to `c1ccc2c(c1)[nH]c1c2ncc2[nH]c3ccccc3c21`, for which the TGI in assay [1] was found to be 9.07 µM; in [2], 8.71 µM; in [3] it was 8.3 µM; in [4] it was 7.99 µM; in assay [5], 33.5 µM; in assay [6] it was 28.7 µM.
With `Cc1c(CC/C(=N\Nc2ccc([N+](=O)[O-])cc2[N+](=O)[O-])c2ccccc2)c2ccccc2n1C`, the TGI is above 100 µM in assay [1]; above 100 µM in [2]; above 31.6 µM in [3]; above 100 µM in [4]; above 100 µM in assay [5]; above 100 µM in assay [6]. This molecule also displayed a TGI in assay [7] above 100 µM.
As for `C/C=C/C1=CN2C(=O)c3cc(OC4OC(C)C(NC)C(C)(O)C4O)c(C)c(O)c3N=C[C@@H]2C1` (some centres not stated), the GI50 in assay [1] was 0.0282 µM and < 0.01 µM; in [3] it was 0.0431 µM and < 0.01 µM; in [4], 0.0589 µM; in assay [8], 0.0819 µM; in [5], 0.0784 µM and < 0.01 µM. Also, the TGI was 0.0887 µM and < 0.01 µM in assay [1]; above 100 µM in assay [3]; 0.213 µM in assay [4]; 0.286 µM in assay [8]; 12.4 µM in [6].
In the case of `Cc1ccc(NC(=O)CC2C(=O)Nc3ccccc3S2=O)c(C)c1` (configuration not stated), the TGI in assay [1] is 61.3 µM; in assay [2], 29.8 µM; in assay [3] it was above 87.1 µM; in assay [4], 46.7 µM; in assay [5] it was 32.8 µM; in assay [6], 33.9 µM. In addition, in [7], the TGI was above 100 µM.
For `CCCCCCCCCCCCC(CCCCCCCCCCCC)OP(=O)(O)O`, the TGI was 52.8 µM in [1]; above 100 µM in [2]; above 100 µM in assay [3]; above 100 µM in assay [4]; above 100 µM in assay [5]; above 100 µM in [6]. The molecule further yielded a TGI in [7] above 100 µM.
For `CCOC(=O)C(C(=O)OCC)=c1sc(=C(C(=O)OCC)C(=O)OCC)s1`, the TGI in assay [2], in [3], in assay [4], in assay [5], in assay [6] and in assay [7] was above 100 µM in each case.
As to `COc1ccc(C2C3=C(COC3=O)Oc3cc4c(cc32)OCO4)cc1` (configuration not stated), the TGI in [2] is 68.1 µM; in assay [3], above 100 µM; in assay [4], above 100 µM; in [5] it was above 100 µM; in assay [6], above 100 µM; in assay [7], above 100 µM.
As to `Cn1sc2ccccc2c1=S`, the TGI in assay [1] was 99 µM; in assay [2], 36.1 µM; in assay [3] it was 26.1 µM; in [4], 22.2 µM; in [5], 34.7 µM; in assay [6], above 59.8 µM. Moreover, the TGI in assay [7] is 21.3 µM.
With `CC1=Nc2ccccc2C12C(c1ccccc1)C(c1ccccc1)C(=O)N1c3ccccc3CC12` (configuration not stated), the TGI in assay [1], in [2], in assay [3], in assay [4], in assay [5] and in assay [6] was above 100 µM each time. The TGI in [7] is above 100 µM.
With `COC(=O)[C@@]12C=CC(=O)[C@H]3C[C@@H](C(C(C)C)C1)[C@]32OC` (some centres not stated), the concentration for total growth inhibition (TGI) in [1], in assay [2], in [3], in assay [4], in [5] and in assay [6] was above 100 µM throughout. This molecule displayed a TGI in [7] above 100 µM.
For `O=NN(CCCl)C(=O)N[C@H]1CCCC[C@@H]1Cl`, the TGI in assay [1], in assay [2], in [3], in assay [4], in assay [5] and in assay [6] was above 100 µM each time.
As for `COC(C)(C)[C@H](O)C(O)CC(C)[C@@H]1CCC23CC12CCC1[C@@]2(C)CCC(OC(C)=O)C(C)(C)C2CC(OC2OC(COC(C)=O)C(O)C(O)C2O)[C@]13C` (some centres not stated), the GI50 in assay [1] was 17 µM; in assay [2], 4.37 µM; in assay [3] it was 4.68 µM; in [4], 3.58 µM; in assay [5], 11.3 µM; in [6], 7.76 µM. The GI50 in assay [7] is 11.5 µM. The concentration for total growth inhibition (TGI) in assay [1] was 18.7 µM and 34.7 µM; in [2], 11.6 µM and 16.9 µM; in assay [3], 10.6 µM and 21.4 µM; in assay [4], 9.78 µM and 14.2 µM; in [5] it was 16 µM and 25.2 µM; in assay [6], 17.7 µM and 20.4 µM. For the same molecule, the TGI in assay [7] is 11.7 µM and 26 µM.
As to `COC(=O)C(=O)C(C(=O)OC)C(=O)C(=O)Nc1cc(Cl)c(Cl)cc1Cl` (configuration not stated), the concentration for total growth inhibition (TGI) in assay [1], in assay [2], in assay [3], in assay [4], in assay [5] and in [6] was above 100 µM throughout. Besides, in assay [7], the TGI was above 100 µM.
`COC(=O)C1=C(C)N(NC(N)=O)C(C)(O)C12CCOC2=O` (configuration not stated): the TGI in assay [1], in [2], in assay [3], in assay [4], in [5] and in assay [6] was above 100 µM each time. The TGI in assay [7] was above 100 µM.
